Assay results published in patent US11261429B2, “Enriched and expanded human cord blood stem cells for treatment of hematological disorders” (ICAHN SCHOOL OF MEDICINE AT MOUNT SINAI, priority 2013, dated 2022).

Tests used:
[1] = test system: NSG mice; experiment: Homing assay of re-isolated CD34+ cells in NSG mice; type: in vivo; details: 16 and 48 hours after infusion, versus control conditions
Procedure: The homing of re-isolated CD34+ cells (5×10^5/mouse) after treatment under control conditions or with VPA was performed as previously described (Shivtiel et at, “CD45 Regulates Homing and Engraftment of Immature Normal and Leukemic Human Cells in Transplanted Immunodeficient Mice,” Exp. Hematol. 39(12):1161-1170 (2011), which is hereby incorporated by reference in its entirety). The recipient NSG mice were purchased from the Jackson Laboratory and sublethally irradiated (300 cGy) 4 hours prior to infusion of the re-isolated CD34+ cells via the tail vein. Sixteen and 48 hours after their infusion, BM cells were harvested from 2 femurs and 2 tibias from each recipient mouse and analyzed by flow cytometry for the presence of human CD34+ cells using a human CD34-APC mAb. The homing of these cell populations was determined by quantitating the number of CD34+ cells per 10^6 acquired events in the BM of the recipient mice. […] Eight NSG mice received CD34+ cells cultured under control conditions, and 10 mice received CD34+ cells from VPA-containing cultures.

[2] = test system: ALDH+CD34+ and ALDH-CD34+ cells; experiment: BFU-E + CFU-Mix generated from sorted ALDH+CD34+ and ALDH-CD34+ cells; type: cell-based, human
From the text: A far greater number of BFU-E+CFU-Mix were generated from ALDH+CD34+ cells generated in the presence of each of the HDACI in SF cultures as compared with SC cultures (ANOVA, p=0.001). By contrast, a greater number of BFU-E+CFU-Mix were generated from ALDH-CD34+ cells in SC cultures as compared to SF cultures. Mean±SE, ANOVA, p=0.01 (n=3).
Purified ALDH+CD34+ cells generated using SF cultures supplemented with VPA generated greater absolute numbers of BFU-E and CFU-Mix (8.4×10^7±6.7×10^7/CB collection) as compared to SC cultures (1.4×10^7±0.88×10^7; ANOVA, p=0.001) (FIG. 20A). By contrast, ALDH-CD34+ cells from SC cultures supplemented with VPA generated greater numbers of BFU-E and CFU-Mix (2.7×10^6±1.0×10^6) as compared to SF cultures (3.5×10^5±0.78×10^5) (ANOVA, p=0.01) (FIG. 20B).

[3] = test system: CD34+CD90+ cells; experiment: Cell cycle analysis by BrdU labeling; type: cell-based, human
Procedure: The cell cycle status of the cultured CD34+CD90+ cells was assessed using the FITC-BrdU Kit (BD Pharmingen) according to the manufacturer's instructions. CB CD34+ cells cultured for 7 days under control conditions in the presence of VPA were subsequently pulsed with BrdU for 2.5 hours. […] After permeabilization, cells were treated with 30 μg of DNAse for 30 minutes at 37° C. and then stained with an FITC-conjugated anti-BrdU antibody and 7AAD. The cell cycle status of CD34+CD90+ gated cells was then documented using a FAC-SCanto II Flow Cytometer with FACSDiva software (BD Biosciences).

[4] = test system: ALDH activity; experiment: ALDH activity (Aldefluor) in expanded CB CD34+ cells; type: cell-based, human; details: cytokines, 7 days
From the text: Increased ALDH activity is a characteristic of primitive hematopoietic cells and cancer stem cells (Hess et al., Functional Characterization of Highly Purified Human Hematopoietic Repopulating Cells Isolated According to Aldehyde Dehydrogenase Activity,” Blood 104:1648-1655 (2004); Lioznov et al., “Aldehyde Dehydrogenase Activity as a Marker for the Quality of Hematopoietic Stem Cell Transplants,” Bone Marrow Transplant 35:909-914 (2005); Storms et al., “Distinct Hematopoietic Progenitor Compartments are Delineated by the Expression of Aldehyde Dehydrogenase and CD34,” Blood 106:95-102 (2005); Aguila et al., “SALL4 is a Robust Stimulator for the Expansion of Hematopoietic Stem Cells,” Blood 118:576-585 (2011), which are hereby incorporated by reference in their entirety). To identify cell populations with high ALDH activity, an Aldefluor kit (StemCell Technologies Inc.) was used according to the manufacturer's instructions, Cells (1×10^6/ml) were suspended in assay buffer, then half of the cells were added to the Aldefluor substrate (test sample) and the remaining half was added to DEAB inhibitor (control sample). The test and control samples were incubated for 40 minutes at 37° C. Cells were subsequently stained with CD34-APC and/or CD117-PE mAbs or an isotype-matched IgG for an additional 20 minutes. Cells were washed and analyzed by a BD FACSCanto II Flow Cytometer.

[5] = SC cultures supplemented with VPA
[6] = SF cultures supplemented with VPA

Structure (SMILES): CCCC(CCC)C(=O)O [VPA, valproic acid]
- homing of CD34+ cells to the marrow of NSG mice [1]: increased horning of CD34+ cells
- absolute numbers of BFU-E and CFU-Mix from ALDH+CD34+ cells [2, 5]: 1.4×10^7±0.88×10^7
- numbers of BFU-E and CFU-Mix from ALDH-CD34+ cells [2, 5]: 2.7×10^6±1.0×10^6
- absolute numbers of BFU-E and CFU-Mix from ALDH+CD34+ cells [2, 6]: 8.4×10^7±6.7×10^7 /CB collection
- numbers of BFU-E and CFU-Mix from ALDH-CD34+ cells [2, 6]: 3.5×10^5±0.78×10^5
- percent CD34+CD90+ cells, flow cytometric analysis (FIG. 4A) ([3]; SF culture with VPA 7 days, one of 3 representative experiments): 82.9%
- CD34+CD90+ cells in G0/G1 ([3]; day 7, BrdU pulse 2.5 hours): 23.2%±13.8%
- CD34+CD90+ cells in G2/M ([3]; day 7, BrdU pulse 2.5 hours): 18.0%±1.2%
- CD34+CD90+ cells in S phase ([3]; day 7, BrdU pulse 2.5 hours): 29.4%±7.9%
- Frequency of ALDH+ cells ([4]; SC cultures): 41.7 ± 3.3^A %
- Frequency of ALDH+CD34+ cells ([4]; SC cultures): 26.1 ± 5.5^A %
- Frequency of ALDH+CD34+CD117+ cells ([4]; SC cultures): 29.4 ± 1.4^A %
- Frequency of ALDH+ cells ([4]; SF cultures): 86.6 ± 7.4^A %
- Frequency of ALDH+CD34+ cells ([4]; SF cultures): 71.1 ± 3.1^A %
- Frequency of ALDH+CD34+CD117+ cells ([4]; SF cultures): 51.3 ± 4.0^A %
